Reference: US20230051589A1, “COMPOUNDS AND COMPOSITIONS FOR TREATING CONDITIONS ASSOCIATED WITH NLRP ACTIVITY” (Novartis AG, priority 2018, published 2023)

system: IL-1β production in PMA-differentiated THP-1 cells; assay: IL-1β production in PMA-differentiated THP-1 cells stimulated with gramicidin (hTHP-1 assay, 2% fetal bovine serum; Procedures 1-3); assay type: cell-based, human; conditions: Homo sapiens, THP-1, hTHP-1 assay containing 2% fetal bovine serum, Table B2, class symbols; read-out: IC50
How it was run: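 IL-1β released into supernatants was read by HTRF after 2 h gramicidin (5 μM) challenge. Before challenge, compounds (3-fold dilutions, top 100 μM, 0.37% DMSO) were given 1 h on THP-1 cells differentiated with PMA (20 ng/ml, 16-18 h) and held in 2% FBS medium.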

IC50 [nM] | SMILES
1000 to 5000 | CN(C)Cc1ccc(S(N)(=O)=NC(=O)Nc2c3c(cc4c2CC4)CC3)cc1 (stereo not drawn) [Example 449, 4-((Dimethylamino)methyl)-N′-(tricyclo[6.2.0.03,6]deca-1,3(6),7-trien-2-ylcarbamoyl)benzenesulfonimidamide]
40 to 200 | CC(C)(O)c1ncc(S(N)(=O)=NC(=O)Nc2c3c(c(Cl)c4c2CCC4)CCC3)s1 (stereo not drawn) [Example 450, N′-((8-chloro-1,2,3,5,6,7-hexahydro-s-indacen-4-yl)carbamoyl)-2-(2-hydroxypropan-2-yl)thiazole-5-sulfonimidamide]
200 to 1000 | CNC(C)(C)c1ccc(S(N)(=O)=NC(=O)Nc2c3c(cc4c2CCC4)CCC3)c(F)c1 (stereo not drawn) [Example 451, 2-Fluoro-N′-(1,2,3,5,6,7-hexahydros-indacen-4-ylcarbamoyl)-4-(2-(methylamino)propan-2-yl)benzenesulfonimidamideonimidamide]
1000 to 5000 | C=CCc1c2c(c(NC(=O)N=S(N)(=O)c3cc(C(C)(C)O)n(-c4ccccc4)n3)c3c1CCC3)CCC2 (stereo not drawn) [Example 458, N′-((8-allyl-1,2,3,5,6,7-hexahydro-s-indacen-4-yl)carbamoyl)-5-(2-hydroxypropan-2-yl)-1-phenyl-1H-pyrazole-3-sulfonimidamide]
200 to 1000 | CC(C)(O)c1cncc(S(N)(=O)=NC(=O)Nc2c3c(c(C#N)c4c2CCC4)CCC3)c1 (stereo not drawn) [Example 461, N′-((8-cyano-1,2,3,5,6,7-hexahydro-s-indacen-4-yl)carbamoyl)-5-(2-hydroxypropan-2-yl)pyridine-3-sulfomidamide]
1000 to 5000 | NS(=O)(=NC(=O)Nc1c2c(cc3c1CC3)CCC2)c1ccc(CN2CCC2)cc1F (stereo not drawn) [Example 463, 4-(azetidin-1-ylmethyl)-2-fluoro-N′-((2,4,5,6-tetrahydro-1H-cyclobuta[f]inden-3-yl)carbamoyl)benzenesulfonimidamide]
40 to 200 | CC(C)(O)c1csc(S(N)(=O)=NC(=O)Nc2c3c(cc4c2CC4)CCC3)c1 (stereo not drawn) [Example 467, 4-(2-Hydroxypropan-2-yl)-N′-((2,4,5,6-tetrahydro-1H-cyclobuta[f]inden-3-yl)carbamoyl)thiophene-2-sulfonimidamide]
1000 to 5000 | CC(C)(O)c1ccc(S(N)(=O)=NC(=O)Nc2c3c(cc4c2C(=O)CC4)CCC3)cn1 (stereo not drawn) [Example 469, 6-(2-Hydroxypropan-2-yl)-N′-((3-oxo-1,2,3,5,6,7-hexahydro-s-indacen-4-yl)carbamoyl)pyridine-3-sulfonimidamide]
200 to 1000 | CC(C)c1cc(S(N)(=O)=NC(=O)Nc2c3c(cc4c2CCC4)CCC3)c(F)cn1 (stereo not drawn) [Example 478, 5-Fluoro-N′-((1,2,3,5,6,7-hexahydro-s-indacen-4-yl)carbamoyl)-2-isopropylpyridine-4-sulfonimidamide]
200 to 1000 | CN1CCc2cc(S(N)(=O)=NC(=O)Nc3c4c(cc5c3CCC5)CCC4)sc2C1 (stereo not drawn) [Example 479, N′-((1,2,3,5,6,7-hexahydro-s-indacen-4-yl)carbamoyl)-6-methyl-4,5,6,7-tetrahydrothieno[2,3-c]pyridine-2-sulfonimidamide]
1000 to 5000 | CC(C)(O)c1cc(C#N)cc(S(N)(=O)=NC(=O)Nc2c3c(c(C#N)c4c2CCC4)CCC3)c1 (stereo not drawn) [Example 482, 3-Cyano-N′-((8-cyano-1,2,3,5,6,7-hexahydro-s-indacen-4-yl)carbamoyl)-5-(2-hydroxypropan-2-yl)benzenesulfonimidamide]
200 to 1000 | CN(C)C(c1ccc(S(N)(=O)=NC(=O)Nc2c3c(cc4c2CCC4)CCC3)cc1)C1CC1 (stereo not drawn) [Example 484, 4-(Cyclopropyl(dimethylamino)methyl)-N′-((1,2,3,5,6,7-hexahydro-s-indacen-4-yl)carbamoyl)benzenesulfonimidamide]
1000 to 5000 | NS(=O)(=NC(=O)Nc1c2c(cc3c1CCC3)CCC2)c1ccc(C(F)F)nc1 (stereo not drawn) [Example 485, 6-(Difluoromethyl)-N′-((1,2,3,5,6,7-hexahydro-s-indacen-4-yl)carbamoyl)pyridine-3-sulfonimidamide]
1000 to 5000 | CNC(C)(C)c1ccc(S(N)(=O)=NC(=O)Nc2c3c(cc4c2CCC4)CCC3)cc1 (stereo not drawn) [Example 486, N′-((1,2,3,5,6,7-hexahydro-s-indacen-4-yl)carbamoyl)-4-(2-(methylamino)propan-2-yl) benzenesulfonimidamide]

More lines, now with the values behind:

SMILES | IC50 [nM]
C/C=C/c1c2c(c(NC(=O)N=S(N)(=O)c3cc(C(C)(C)O)n(-c4ccccc4)n3)c3c1CCC3)CCC2 (stereo not drawn) [Example 459, (E)-5-(2-hydroxypropan-2-yl)-1-phenyl-N′-((8-(prop-1-en-1-yl)-1,2,3,5,6,7-hexahydro-s-indacen-4-yl)carbamoyl)-1H-pyrazole-3-sulfonimidamide] | 1000 to 5000
NS(=O)(=NC(=O)Nc1c2c(cc3c1CCC3)CCC2)c1cnc(C(O)(CO)CO)s1 (stereo not drawn) [Example 460, N′-((1,2,3,5,6,7-hexahydro-s-indacen-4-yl)carbamoyl)-2-(1,2,3-trihydroxypropan-2-yl) thiazole-5-sulfonimidamide] | 40 to 200
NS(=O)(=NC(=O)Nc1c2c(cc3c1CCC3)CCC2)c1ccc(CN2CCC2)cc1F (stereo not drawn) [Example 462, 4-(azetidin-1-ylmethyl)-2-fluoro-N′-((1,2,3,5,6,7-hexahydro-s-indacen-4-yl)carbamoyl)benzenesulfonimidamide] | 1000 to 5000
CC(C)(O)c1ccc(S(N)(=O)=NC(=O)Nc2cc3c(c4c2CCC4)CCC3)cn1 (stereo not drawn) [Example 464, N′-((1,2,3,6,7,8-hexahydro-as-indacen-4-yl)carbamoyl)-6-(2-hydroxypropan-2-yl)pyridine-3-sulfonimidamide] | 1000 to 5000
Cc1c(C2CC2)cc2c(c1NC(=O)N=S(N)(=O)c1cc(C(C)(C)O)cs1)CCC2 (stereo not drawn) [Example 465, N′-((6-cyclopropyl-5-methyl-2,3-dihydro-1H-inden-4-yl)carbamoyl)-4-(2-hydroxypropan-2-yl)thiophene-2-sulfonimidamide] | 40 to 200
CC(C)(O)c1csc(S(N)(=O)=NC(=O)Nc2c3c(cc4c2C(=O)CC4)CCC3)c1 (stereo not drawn) [Example 466, 4-(2-Hydroxypropan-2-yl)-N′-((3-oxo-1,2,3,5,6,7-hexahydro-s-indacen-4-yl)carbamoyl)thiophene-2-sulfonimidamide] | 200 to 1000
Cc1c(C2CC2)cc2c(c1NC(=O)N=S(N)(=O)c1cnc(C(C)(C)O)s1)CCC2 (stereo not drawn) [Example 468] | 40 to 200
CC(C)(O)c1ccc(S(N)(=O)=NC(=O)Nc2c3c(c(C#N)c4c2CCC4)CCC3)cn1 (stereo not drawn) [Example 470, N′-((8-cyano-1,2,3,5,6,7-hexahydro-s-indacen-4-yl)carbamoyl)-6-(2-hydroxypropan-2-yl)pyridine-3-sulfonimidamide] | 200 to 1000
CN(C)C(c1ccc(S(N)(=O)=NC(=O)Nc2c3c(cc4c2CCC4)CCC3)cc1)C(F)F (stereo not drawn) [Example 474, 4-(1-(Dimethylamino)-2,2-difluoroethyl)-N-((1,2,3,5,6,7-hexahydro-s-indacen-4-yl)carbamoyl)benzenesulfonimidamide] | 1000 to 5000
CC(C)(O)c1nc(CO)c(S(N)(=O)=NC(=O)Nc2c3c(cc4c2CCC4)CCC3)s1 (stereo not drawn) [Example 475, N′-((1,2,3,5,6,7-hexahydro-s-indacen-4-yl)carbamoyl)-4-(hydroxymethyl)-2-(2-hydroxypropan-2-yl)thiazole-5-sulfonimidamide] | 40 to 200
CN(C)C(CF)c1ccc(S(N)(=O)=NC(=O)Nc2c3c(cc4c2CCC4)CCC3)cc1 (stereo not drawn) [Example 480, 4-(1-(Dimethylamino)-2-fluoroethyl)-N′-((1,2,3,5,6,7-hexahydro-s-indacen-4-yl)carbamoyl)benzenesulfonimidamide] | 1000 to 5000
CNCc1cc(F)c(S(N)(=O)=NC(=O)Nc2c3c(cc4c2CCC4)CCC3)s1 (stereo not drawn) [Example 481, 3-Fluoro-N′-((1,2,3,5,6,7-hexahydro-s-indacen-4-yl)carbamoyl)-5-((methylamino)methyl)thiophene-2-sulfonimidamide] | 40 to 200
NS(=O)(=NC(=O)Nc1c2c(cc3c1CCC3)CCC2)c1ccc(C2CCCC2)nc1 (stereo not drawn) [Example 483, 6-Cyclopentyl-N′-((1,2,3,5,6,7-hexahydro-s-indacen-4-yl)carbamoyl)pyridine-3-sulfonimidamide] | 1000 to 5000
CN(Cc1ccc(S(N)(=O)=NC(=O)Nc2c3c(cc4c2CCC4)CCC3)cc1)CC(F)(F)F (stereo not drawn) [Example 487, N′-((1,2,3,5,6,7-hexahydro-s-indacen-4-yl)carbamoyl)-4-((methyl(2,2,2-trifluoroethyl)amino)methyl) benzenesulfonimidamide] | 1000 to 5000

same assay, conditions: hTHP-1 assay containing 2% fetal bovine serum, Table B2, class symbols; read-out: IC50

IC50 [nM] | SMILES
200 to 1000 | COCc1nc(C(C)(C)O)sc1S(N)(=O)=NC(=O)Nc1c2c(c(C#N)c3c1CCC3)CCC2 (stereo not drawn) [Example 454, N′-((8-cyano-1,2,3,5,6,7-hexahydro-s-indacen-4-yl)carbamoyl)-2-(2-hydroxypropan-2-yl)-4-(methoxymethyl)thiazole-5-sulfonimidamide]
1000 to 5000 | CC(C)(O)c1cnc(S(N)(=O)=NC(=O)Nc2c3c(cc4c2CCC4=O)CCC3)s1 (stereo not drawn) [Example 455, 5-(2-Hydroxypropan-2-yl)-N′-((1-oxo-1,2,3,5,6,7-hexahydro-s-indacen-4-yl)carbamoyl)thiazole-2-sulfonimidamide]
200 to 1000 | CC(C)(O)c1ccnc(S(N)(=O)=NC(=O)Nc2c3c(c(C#N)c4c2CCC4)CCC3)c1 (stereo not drawn) [Example 456, N′-((8-cyano-1,2,3,5,6,7-hexahydro-s-indacen-4-yl)carbamoyl)-4-(2-hydroxypropan-2-yl)pyridine-2-sulfonimidamide]
200 to 1000 | COc1ccc(Cn2nc(S(N)(=O)=NC(=O)Nc3c4c(cc5c3CCC5)CCC4)cc2C(C)(C)O)cc1 (stereo not drawn) [Example 457, N′-((1,2,3,5,6,7-hexahydro-s-indacen-4-yl)carbamoyl)-5-(2-hydroxypropan-2-yl)-1-(4-methoxybenzyl)-1H-pyrazole-3-sulfonimidamide]
200 to 1000 | CC(C)(O)c1cc(S(N)(=O)=NC(=O)Nc2c3c(cc4c2CCC4)CCC3)sc1-c1ccccc1 (stereo not drawn) [Example 477, N′-((1,2,3,5,6,7-hexahydro-s-indacen-4-yl)carbamoyl)-4-(2-hydroxypropan-2-yl)-5-phenylthiophene-2-sulfomidamide]
